From article PMC13165411 (Molecules, 2026)
Several values for one entry are separate records, joined by “and”; a condition that tells them apart may be missing. Identical values can stand only once.

What was measured:
[1] = Cytotoxicity on A549 cell monolayers (resazurin reduction assay); type: cell-based; settings: human, A549 cells (confluent monolayer), 0.1 to 1000 µM, 16 h exposure, read-out: Cell viability (% of untreated control)
Experimental: Cells were obtained from the American Type Culture Collection (ATCC, Manassas, VA, USA) and cultured according to the supplier’s instructions. Cells were maintained in DMEM supplemented with 10% fetal bovine serum (FBS) and seeded into sterile 96-well plates at a density of 1 × 10^5 cells per well, allowing for the formation of a confluent monolayer prior to treatment. After 24 h incubation at 37 °C (5% CO2), the culture medium was replaced with 200 μL of fresh medium containing ten-fold dilutions of the test compounds, ranging from 0.1 to 1000 µM.
After a 16 h exposure period, cell viability was assessed via the resazurin reduction assay. Briefly, 30 μL of a 0.01% resazurin solution (Sigma-Aldrich, St. Louis, MO, USA) was added to each well and incubated for 4 h at 37 °C. The reduction of resazurin to resorufin by metabolically active cells was quantified using a ClarioSTAR microplate reader (BMG Labtech, Ortenberg, Germany), with excitation and emission wavelengths set at 520 nm and 580 nm, respectively. All experiments were performed in triplicate, and cell viability was expressed as a percentage relative to untreated control wells.

[2] = Inhibitor stability under oxidative conditions by direct-infusion ESI-MS; type: physicochemical; settings: 100 μM compound, 44 mM H2O2, 30 min, 37 °C, no HNE
Experimental: Mass spectrometry analysis was performed using an Advion Interchim Scientific expression® Compact Mass Spectrometer (CMS) (Advion Interchim Scientific, Ithaca, NY, USA) equipped with an ESI source. Stock solutions of each inhibitor were prepared in DMSO and diluted in an assay buffer to a final concentration of 100 μM (DMSO ≤ 1% v/v). Aliquots were incubated in the presence or absence of H2O2 (44 mM final concentration) for 30 min at 37 °C, matching the oxidative treatment used in the enzymatic assays. After incubation, samples were diluted 1:1 (v/v) with water containing 0.1% formic acid and directly analyzed in both positive- and negative-ion mode. Mass spectra were analyzed with Mass Express software version 5.1.

[3] = target: T1, HNE under oxidizing conditions (oxidized HNE) (Homo sapiens, UniProt P08246); assay: HNE inhibition assay under oxidizing conditions (HNE pre-incubated with 44 mM H2O2); type: biochemical; settings: for remaining activity at 100 µM: HNE under oxidizing conditions (44 mM H2O2), maximum inhibitor concentration 100 μM, read-out: Residual Activity at Maximum Inhibitor Concentration (%)
T1 construct: purchased Abcam
T1 sequence (P08246 30-247 limits assumed): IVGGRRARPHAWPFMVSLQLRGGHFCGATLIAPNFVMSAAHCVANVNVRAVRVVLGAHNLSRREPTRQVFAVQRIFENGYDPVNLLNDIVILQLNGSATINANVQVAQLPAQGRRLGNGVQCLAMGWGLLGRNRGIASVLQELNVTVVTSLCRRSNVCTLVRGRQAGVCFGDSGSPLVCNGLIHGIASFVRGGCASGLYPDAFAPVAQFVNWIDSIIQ
Experimental: HNE activity under oxidative conditions was determined using the colorimetric assay described above. Briefly, HNE was pre-incubated with 1 μL of 30% (w/v) H2O2 (final concentration 44 mM in a total reaction volume of 200 μL) for 60 min at 37 °C. The oxidative conditions used in this study were designed to promote cumulative oxidative modifications of HNE rather than to reproduce physiological ROS concentrations, allowing simulation of oxidative stress in chronically inflamed tissues where repeated ROS exposure leads to progressive protein oxidation. The kinetic parameters of oxidized HNE were determined as described above. Subsequently, inhibition assays were performed by initiating the reaction with substrate (final concentration 0.15 mM) in the presence of increasing concentrations of inhibitor (0.1–100 μM). The reaction mixtures were then incubated at 37 °C for 45 min and then terminated by the addition of 20 μL of 0.45 M TCA. Samples were cooled on ice, centrifuged, and analyzed as described in Section 2.4.
Residual enzymatic activity (%) was calculated relative to HNE activity in the absence of inhibitors, set as 100%. The lowest observed activity under the experimental conditions was taken as the maximal inhibition achieved within this assay range.

[4] = target: T2, Human neutrophil elastase (HNE) (Homo sapiens, UniProt P08246); assay: HNE colorimetric inhibition and steady-state kinetics assay (MeOSuc-Ala-Ala-Pro-Val-pNA), native conditions; type: biochemical; settings: inhibitor 0.1-100 μM; for Mode of inhibition (Lineweaver-Burk plots): steady-state kinetics
T2 construct: purchased Abcam
T2 sequence (P08246 30-267): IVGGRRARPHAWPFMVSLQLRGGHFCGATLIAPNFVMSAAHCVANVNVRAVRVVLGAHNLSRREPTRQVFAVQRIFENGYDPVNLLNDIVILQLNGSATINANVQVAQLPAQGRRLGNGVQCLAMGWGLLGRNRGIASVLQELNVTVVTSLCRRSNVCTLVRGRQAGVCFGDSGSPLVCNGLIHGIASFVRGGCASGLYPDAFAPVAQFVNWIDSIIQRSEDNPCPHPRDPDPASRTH
Experimental: HNE activity was assessed through a colorimetric assay based on the hydrolysis of the synthetic peptide substrate MeOSuc-Ala-Ala-Pro-Val-pNA [37]. To determine the steady-state kinetic parameters, 0.4 μg of HNE (corresponding to a final concentration of approximately 0.05 μM) were added to an incubation buffer consisting of 50 mM Tris-HCl, pH 7.8 containing 500 mM NaCl. The reaction was initiated by adding a fixed volume (20 µL) of intermediate substrate working solutions to the enzyme–buffer mixture, reaching a final reaction volume of 200 µL. These working solutions were prepared by diluting a 20 mM substrate stock solution in DMSO with incubation buffer, ensuring that the final DMSO concentration remained constant at 1% (v/v) across all tested substrate concentrations (ranging from 0.075 to 2.4 mM). This approach was applied to all samples, including blanks, to maintain a uniform solvent environment. The mixtures were incubated at 37 °C for 45 min. […] The reaction was then quenched with 20 μL of 0.45 M trichloroacetic acid (TCA). After cooling on ice for 30 min, the samples were centrifuged at 11,500 rpm for 10 min to remove precipitated proteins. The concentration of p-nitroaniline (p-NA) released into the supernatant was determined by measuring the absorbance at 410 nm. All assays were performed in triplicate, and the kinetic parameters were determined by fitting the experimental data to the Michaelis–Menten equation using GraphPad Prism 8.0 software (GraphPad Software, San Diego, CA, USA).
Stock solutions of both inhibitors were prepared in DMSO and diluted with incubation buffer to obtain intermediate working solutions. A fixed volume of these working solutions was added to each reaction mixture so that the final DMSO concentration remained constant at 1% (v/v) across all inhibitor concentrations. […]
Subsequently, the inhibition constants (Ki) were determined independently from IC50 values by performing steady-state kinetic assays at varying concentrations of both substrate and inhibitors. […]

| SMILES | viability at 16 h [1] [%] | Chemical stability under oxidizing conditions (ESI-MS spectra vs untreated control) [2] | Inhibition of oxidized HNE at the highest tested concentration ([3]; 100 μM inhibitor, HNE pre-treated with 44 mM H2O2) | remaining activity at 100 µM [3] [%] | Mode of inhibition (Lineweaver-Burk plots) [4] | IC50 ([3]; HNE pre-incubated with 44 mM H2O2, 60 min, 37 °C, substrate 0.15 mM) [µM] | IC50 ([4]; substrate 0.15 mM, 37 °C, 45 min, read-out: IC50 against HNE activity) |
| --- | --- | --- | --- | --- | --- | --- | --- |
| CC(C)(C)C(=O)Oc1ccc(S(=O)(=O)Nc2ccccc2C(=O)NCC(=O)O)cc1 [Sivelestat] | ~100 | no additional peaks | failed to achieve significant inhibition | > 80 | competitive inhibition |  |  |
| Cc1c(-c2ccnn2C)cc(C(=O)NCc2ccc(S(C)(=O)=O)cn2)c(=O)n1-c1cccc(C(F)(F)F)c1 [Alvelestat] | ~100 | no additional peaks |  | < 20 | competitive inhibition | 4 ± 0.41 | 2.8 µM and 2.84 µM |
